Read-outs that look alike come from different tables or passages of the source. Where a SMILES comes first, the peptide text is derived from it. Bridges are numbered along the chain shown (N, C = ends). [ ]: non-standard residue; d: D form. The star is where a group is joined. X1 = CC[C@H](C)CCCCC(=O)*; Dab = NCC[C@H](N)C(=O)O
What was measured:
[1] = cited from earlier work
Excerpt: Colistin (colistin methanesulfonate, CMS) and polymyxin B (PMB) are polymyxins that were approved for clinical use in the 1950s worldwide. Colistin is clinically administered as a prodrug, which requires conversion to the active form in vivo. […] The elimination of colistin is primarily dependent on renal function. Patients with renal impairment are prone to drug accumulation and increased nephrotoxicity risk. PMB is ... || Finally, we cannot rule out the possibility of the potential impacts of other combined drugs on PMB PK and the heterogeneity among the patients in our study. To date, little evidence supports the conclusion that the combined use of other drugs affects PMB PK. Studies have shown that urinary recovery from PMB is low (<5%). […] Further studies examining the nonrenal routes of PMB elimination are warranted, ...

plasma protein = assay: Binding of PMB in plasma, rapid equilibrium dialysis; format: in vitro ADME; settings: human, rapid equilibrium dialysis (Pierce RED), pooled patient plasma pH 7.4, 300 μL against PBS pH 7.4, 37 °C, triplicate, mean, read-out: plasma protein-binding ratio (converted)
Description: The plasma protein binding of PMB was determined by rapid equilibrium dialysis device purchased from Thermo Scientific™ (Pierce RED, CAS90006, Rockford, IL, USA). For each patient, three plasma samples (totaling approximately 1 ml) were pooled (pH adjusted to 7.4), and the test was performed in triplicate. For each, 300 μL was dialyzed against an equal volume of isotonic phosphate-buffered saline (pH 7.4) at 37 °C for 4 h. PMB concentrations were determined, and the extent of protein binding was calculated as 1 minus the ratio of the PMB concentration in the buffer to that in the plasma and is expressed as a percentage.

[2] = Nephrotoxicity during PMB therapy; format: in vivo, human
Description: Patient characteristics and laboratory data, including age, sex, weight, medical history, Acute Physiology And Chronic Health Evaluation (APACHE) II score, Sequential Organ Failure Assessment (SOFA) score, estimated creatinine clearance, arterial blood gas analysis, life support interventions, infection site, and type of pathogen, were recorded before PMB administration. The anti-infection therapeutic regimen, course, and incidence of PMB-related adverse reactions were recorded during the study. The creatinine clearance rate (CCr) was calculated with the formula: Ccr = (140 − age) × weight (kg)/[72 × serum creatinine (mg/dL)] for male and Ccr = (140 − age) × weight(kg)/[85 × serum creatinine (mg/dL)] for female. Nephrotoxicity was defined as an increase in serum creatinine of ≥0.3 mg/dL within 48 h or an increase in serum creatinine to ≥1.5 times higher than baseline.

[3] = PMB concentration in epithelial lining fluid (BAL, urea dilution method); format: in vivo; settings: human, iv, 50 mg; for Kp at 96 h: epithelial lining fluid / plasma, read-out: ELF/plasma ratio; for level at 96 h: epithelial lining fluid; for Cmax: plasma, patients with BAL samples
Description: BAL sample collection was possible for 15 of the patients. If the patients’ respiratory status permitted, one BAL was performed immediately after the seventh dose (on day 4 of treatment). Four 20 mL aliquots of sterile 0.9% normal saline solution were instilled, immediately aspirated, and placed on ice. The aspirate from the first 20 mL instillation was collected and discarded. The aspirates recovered from the second, third, and fourth instillations were pooled.
Blood and BAL samples were centrifuged for 10 min (3000 rpm) and immediately stored at −80 °C until analysis.
PMB concentrations in the samples were quantified by monitoring the total concentrations of polymyxin B1 (PB1), polymyxin B2 (PB2), polymyxin B3 (PB3), and isoleucine polymyxin B1 (I-PB1) via a validated ultraperformance liquid chromatography–tandem mass spectrometry (UPLC-MS/MS) assay. The standard substances, including PB1 (CAS P037), PB2 (CAS P037), PB3 (CAS P040), and I-PB1 (CAS P038), were purchased by TOKU-E Company (>99% pure, Bellingham, WA, USA). ACQUITY UPLC system, Quattro PremierXE triple quadrupole mass spectrometer, electrospray isonizaiton source (ESI), and Masslynx 4.1 data processing software were used in this study (Waters Company, Milford, MA, USA). An Acquity UPLC BEH C18 column (50 mm × 2.1 mm internal diameter, 1.8 μm) purchased from Waters (Milford, MA, USA) was used. The mobile phase comprised a 0.2% formic acid aqueous solution and a 0.2% formic acid acetonitrile solution, and the flow rate was 0.3 mL/min. Mass spectrometric detection was performed in positive electrospray ionization (ESI+) mode with multiple reaction monitoring (MRM). The optimized transitions were set as follows: m/z 602.7→101.0 for PB1 and I-PB1, m/z 595.7→100.9 for PB2 and PB3, and […] for the internal standard norvancomycin. Plasma and BAL supernatant was aliquoted into microcentrifuge tubes and sequentially treated with 20 μL norvancomycin or 200 μL 5% trichloroacetic acid. 1 μL plasma and 2 μL BAL of supernatant were collected separately for the detection of PMB concentrations.
The ELF recovery rate was calculated via the urea dilution method, as reported in previous studies. The concentration of urea was analysed with a commercial kit purchased from Beijing Solarbio Science & Technology Co., Ltd., Beijing, China (BC1535). The concentration of PMB in the ELF (ELF[PMB]) was measured by using urea as an endogenous marker of ELF dilution via the following equation: ELF[PMB] = BAL[PMB] × (blood urea/BAL[Urea]), where BAL[PMB] is the concentration of PMB in BAL and BAL[Urea] is the concentration of urea in BAL.

CC[C@H](C)CCCCC(=O)N[C@@H](CCN)C(=O)N[C@H](C(=O)N[C@@H](CCN)C(=O)N[C@H]1CCNC(=O)[C@H]([C@@H](C)O)NC(=O)[C@H](CCN)NC(=O)[C@H](CCN)NC(=O)[C@H](CC(C)C)NC(=O)[C@@H](Cc2ccccc2)NC(=O)[C@H](CCN)NC1=O)[C@@H](C)O [PMB, polymyxin B] (X1-[Dab]T[Dab][Dab][Dab][dF]L[Dab][Dab]T; lactam 4-C)
urinary recovery [1]: < 5%
hepatobiliary metabolism (non-renal clearance) ([1]; in vivo): ~60%
fraction unbound at 4 h (plasma protein): 0.145
Nephrotoxicity ([2]; Total (n = 27), serum creatinine increase ≥0.3 mg/dL within 48 h or ≥1.5 times baseline): 4 (14.81) n (%)
number of patients who suffered from nephrotoxicity ([2]; when PMB medication was administered, 27 patients): four
Kp at 96 h ([3]; treatment failure group, median [IQR]): 0.088
Kp at 96 h ([3]; treatment success group, median [IQR]): 0.17
level at 96 h ([3]; BAL immediately after the seventh dose (day 4), urea dilution method, median and IQR, read-out: ELF concentration): 900 ng/mL
level at 96 h ([3]; treatment failure group, median [IQR], read-out: PMB concentration in the ELF): 980 ng/mL
level at 96 h ([3]; treatment success group, median [IQR], read-out: PMB concentration in the ELF): 840 ng/mL
Cmax ([3]; median and IQR, read-out: plasma Cmax): 7460 ng/mL
Cmax ([3]; treatment failure group, median [IQR], read-out: Cmax): 11100 ng/mL
Cmax ([3]; treatment success group, median [IQR], read-out: Cmax): 5940 ng/mL

Reference: paper PMC12030314, “Biomarker-Driven Pharmacokinetics and Efficacy of Polymyxin B in Critically Ill Patients with XDR-GN Pneumonia” (Pharmaceuticals, 2025)
